Results on one compound are retold here after patent publication US20250213524A1, “COMPOSITIONS FOR USE” (Amazentis SA, priority 2023, published 2025).

The assay deals with human sperm. In words: Ex vivo incubation of human semen samples with urolithin A, motility by computer-assisted semen analysis (CEROS II). In kind it is cell-based. To be noted: for Motile sperm concentration (million/mL), UA vs. DMSO: 4 hours incubation at 36° C.; for Motile sperm concentration (million/mL), UA vs. DMSO / BCF Beat Cross-Frequency, UA vs. DMSO / Rapid progressive motile sperm concentration (million/mL), UA vs. DMSO: increase vs. DMSO; for Rapid progressive motile sperm concentration (million/mL), UA vs. DMSO: rapid progressive motility >25 μm/s; for motile sperm concentration: increase. The procedure: Sperm samples from five healthy men donors were processed within 1 hour of collection. 3 samples were either diluted 1:1 in culture media containing DMSO or urolithin A (UA) (0.05, 0.1, 0.5, and 2.0 μM in DMSO). For these samples, all treatments contained the same amount of DMSO. Two samples were pre-diluted in culture media, which was then diluted in the treatment solutions, immediately. This was to decrease the eventual effect of seminal plasma. Samples were incubated for 4 hours with the indicated UA doses. For the study, semen samples were obtained by masturbation after 2-7 days of ejaculatory abstinence, according to World Health Organization Guidelines (https://www.who.int/publications/i/item/9789240030787). Samples were collected into sterile wide-mouth polypropylene containers tested for sperm toxicity (BIRR semen collection container, IVF store code 113102). After collection, samples were kept in an air incubator for 1 hour, until semen liquefaction. For experiments, a 50 mM stock Urolithin A (UA) solution was prepared in Dimethyl Sulfoxide (DMSO, Fisher Scientific, BP231-100). At the day of the experiments, a working solution was prepared by diluting the 50 mM stock solution 1:1000 in Sperm Washing Medium (FujiFilm Modified HTF Medium with Human Serum Albumin, 5.0 mg/mL, catalog ID: 9983). A blank working solution containing only DMSO was also prepared by diluting DMSO 1:1000 in Sperm Washing Medium. Treatment solutions were then prepared containing 0, 0.1 μM, 0.2 μM, 1.0 μM, and 4.0 μM were prepared as follows: Treatment solutions were then diluted 1:1 with raw semen (samples A, B, and D) or with semen that had been pre-diluted 1:1 in Sperm Washing Medium (samples C and E), so that final achieved treatment concentrations were 0 (blank, DMSO only, 0.05 µM, 0.1 μM, 0.5 μM, and 2.0 µM UA. This was incubated at 36° C. for 4 hours, after which motility was assessed using a CEROS II system for computer-assisted semen analysis (Hamilton Thorne Inc., Beverly, MA, USA). To achieve this, 4-chamber 20 μm Leja slides (IMV International Ref. 025107-025108) were pre-heated at 37° C. 2.5 μL of each sample was pipetted into each chamber, and the Human Motility module of the CEROS II system was used to capture multiple fields (at least 6) in order to determine sperm motility parameters.

[1] abbreviates: all doses (0.05, 0.1, 0.5, 2.0 μM), 4 hours incubation.

In the case of `O=c1oc2cc(O)ccc2c2ccc(O)cc12` [UA, Urolithin A], the “Motile sperm concentration (million/mL), UA vs. DMSO” value is 2% (0.05 uM UA), 16.8% (0.1 uM UA), 10.7% (0.5 uM UA) and 21.4% (2 uM UA). The “BCF Beat Cross-Frequency, UA vs. DMSO” value is on record as 5% (0.05 uM UA, 4 hours incubation, motile sperm); 6% (0.1 uM UA, 4 hours incubation, motile sperm); 9% (0.5 uM UA, 4 hours incubation, motile sperm); 7% (2 uM UA, 4 hours incubation, motile sperm). For the same compound, the “Rapid progressive motile sperm concentration (million/mL), UA vs. DMSO” value runs as follows: (0.05 uM UA, 4 hours incubation) 2%; (0.1 uM UA, 4 hours incubation) 20%; (0.5 uM UA, 4 hours incubation) 10%; (2 uM UA, 4 hours incubation) 20%. Also, the “Motile sperm concentration, effect in words” value under setting [1] is “increased at all doses”. In addition, under setting [1], the “Rapid progressive motile sperm concentration, effect in words” value is listed as “increased at all doses”. Also, where the note is “all doses (0.05, 0.1, 0.5, 2.0 μM), motile sperm, 4 hours incubation”, the “Beat Cross-Frequency, effect in words” value was “an increase by UA at all doses”. The “sperm motility / sperm health, effect in words” value (applied ex vivo to human sperm, especially 0.1 uM to 2 uM) is recorded as “increases sperm motility”. The “motile sperm concentration” value (highest UA 2 μM dose, 4 hours incubation) is 20% and the “motile sperm concentration” value (lower dose of UA 0.05 μM, 4 hours incubation) is given as 2%.
